Eleven compounds from BindingDB's records for doi:10.1021/jm00061a009 (National Institute of Diabetes and Digestive and Kidney …, 1993) can be followed below.

This assay can be described thus: Inhibition of [3H](+)-pentazocine binding to sigma receptor of guinea pig brain homogenates.

`c1ccc2sc(C3(N4CCCC4)CCCCC3)cc2c1` [1-(1-Benzo[b]thiophen-2-yl-cyclohexyl)-pyrrolidine] had a Ki of 168 nM.
`c1ccc2sc(C3(N4CCCCCC4)CCCC3)cc2c1` [1-(1-Benzo[b]thiophen-2-yl-cyclopentyl)-azepane] came in with a Ki of 2890 nM.
For `c1ccc2sc(C3(N4CCCCCC4)CCCCC3)cc2c1` [1-(1-Benzo[b]thiophen-2-yl-cyclohexyl)-azepane] the value was 674 nM.
With `c1ccc2sc(C3(N4CCCCC4)CCCCCC3)cc2c1` [1-(1-Benzo[b]thiophen-2-yl-cycloheptyl)-piperidine], the Ki amounted to 2230 nM.
On to `c1ccc2sc(C3(N4CCCC4)CCCC3)cc2c1` [1-(1-Benzo[b]thiophen-2-yl-cyclopentyl)-pyrrolidine], for which the Ki was found to be 125 nM.
In the case of `c1ccc2sc(C3(N4CCCCC4)CCCC3)cc2c1` [1-(1-Benzo[b]thiophen-2-yl-cyclopentyl)-piperidine], the Ki was 1100 nM.
Next, `c1ccc2sc(C3(N4CCCCCC4)CCCCCC3)cc2c1` [1-(1-Benzo[b]thiophen-2-yl-cycloheptyl)-azepane]: 2710 nM.
Next, `NC1(c2cc3ccccc3s2)CCCCCC1` [1-Benzo[b]thiophen-2-yl-cycloheptylamine]: 9170 nM; `c1ccc2sc(C3(N4CCCC4)CCCCCC3)cc2c1` [1-(1-Benzo[b]thiophen-2-yl-cycloheptyl)-pyrrolidine]: 720 nM; `NC1(c2cc3ccccc3s2)CCCCC1` [1-Benzo[b]thiophen-2-yl-cyclohexylamine]: 3170 nM.
Regarding `NC1(c2cc3ccccc3s2)CCCC1` [1-Benzo[b]thiophen-2-yl-cyclopentylamine], the Ki stood at 1730 nM.

The Ki is a measure of affinity in units of concentration, obtained from inhibition or displacement.
